Test results taken from patent publication US7611856B2 (priority 2003, dated 2009).

System: BoNT
Format: biochemical, Clostridium botulinum

(SNRTRIDQGNQRATRNleL)4K2KC(beta)A [Substrate 39]
specific turnover over unspecific protease background cleavage reactions: shown to increase the specific turnover
